Reference: patent publication US20150344540A1, “NOVEL GLP-1 RECEPTOR AGONISTS WITH CHOLESTEROL EFFLUX ACTIVITY” (NOVO NORDISK A/S, priority 2012, published 2015)
pEC50: −log10 of the molar value. Where a SMILES comes first, the peptide text is derived from it. [ ]: non-standard residue; d: D form. Aib = CC(C)(N)C(=O)O

Each compound was assayed on Mouse monocyte/macrophage cell line, RAW 264.7 (assay: Cholesterol efflux assay (3H-cholesterol, macrophage cell line)). Conditions: RAW 264.7, 4 hrs incubation, 0.1% human serum albumin, ABCA1-mediated efflux.
Type: cell-based

Compared with `CC[C@H](C)[C@H](NC(=O)[C@H](Cc1ccccc1)NC(=O)[C@H](CCC(=O)O)NC(=O)[C@H](CCCCN)NC(=O)[C@@H](NC(=O)[C@H](C)NC(=O)[C@H](CCC(=O)O)NC(=O)CNC(=O)[C@H](CCC(=O)O)NC(=O)[C@H](CC(C)C)NC(=O)[C@H](Cc1ccc(O)cc1)NC(=O)[C@H](CO)NC(=O)[C@H](CO)NC(=O)[C@@H](NC(=O)[C@H](CC(=O)O)NC(=O)[C@H](CO)NC(=O)[C@@H](NC(=O)[C@H](Cc1ccccc1)NC(=O)[C@@H](NC(=O)CNC(=O)[C@H](CCC(=O)O)NC(=O)C(C)(C)NC(=O)[C@@H](N)Cc1c[nH]cn1)[C@@H](C)O)[C@@H](C)O)C(C)C)C(C)C)C(=O)N[C@@H](C)C(=O)N[C@@H](Cc1c[nH]c2ccccc12)C(=O)N[C@@H](CC(C)C)C(=O)N[C@@H](CC(C)C)C(=O)N[C@@H](CCC(=O)O)C(=O)N[C@@H](CCCCN)C(=O)NC(C)(C)C(=O)N[C@@H](CCCCN)C(=O)N[C@@H](CCC(=O)O)C(=O)N[C@@H](Cc1c[nH]c2ccccc12)C(=O)N[C@@H](CC(C)C)C(N)=O` [Compound 89, [Aib8,Glu23,Val25,Leu33,Glu34,Lys35,Aib36,Lys37]-GLP-1-(7-37)-peptidyl-Glu-Trp-Leu amide] (H-H[Aib]EGTFTSDVSSYLEGEAVKEFIAWLLEK[Aib]KEWL-NH2), `CC[C@H](C)[C@H](NC(=O)[C@H](Cc1ccccc1)NC(=O)[C@H](CCC(=O)O)NC(=O)[C@H](CCCCN)NC(=O)[C@@H](NC(=O)[C@H](C)NC(=O)[C@H](CCCCN)NC(=O)CNC(=O)[C@H](CCC(=O)O)NC(=O)[C@H](CC(C)C)NC(=O)[C@H](Cc1ccc(O)cc1)NC(=O)[C@H](CO)NC(=O)[C@H](CO)NC(=O)[C@@H](NC(=O)[C@H](CC(=O)O)NC(=O)[C@H](CO)NC(=O)[C@@H](NC(=O)[C@H](Cc1ccccc1)NC(=O)[C@@H](NC(=O)CNC(=O)[C@H](CCC(=O)O)NC(=O)C(C)(C)NC(=O)[C@@H](N)Cc1c[nH]cn1)[C@@H](C)O)[C@@H](C)O)C(C)C)C(C)C)C(=O)N[C@@H](C)C(=O)N[C@@H](Cc1c[nH]c2ccccc12)C(=O)N[C@@H](CC(C)C)C(=O)N[C@H](C(=O)N[C@@H](CCC(=O)O)C(=O)N[C@@H](CCCCN)C(=O)NC(C)(C)C(=O)N[C@@H](CCCCN)C(=O)N[C@@H](CCC(=O)O)C(=O)N[C@@H](Cc1ccccc1)C(=O)N[C@@H](CC(C)C)C(N)=O)C(C)C` [Compound 90, [Aib8,Lys23,Val25,Glu34,Lys35,Aib36,Lys37]-GLP-1-(7-37)-peptidyl-Glu-Phe-Leu amide] (H-H[Aib]EGTFTSDVSSYLEGKAVKEFIAWLVEK[Aib]KEFL-NH2; N-terminus assumed) is higher in “4 h Cholesterol Efflux Emax” value: 102% for the first, 110% for the second.

Going from `CC[C@H](C)[C@H](NC(=O)[C@H](Cc1ccccc1)NC(=O)[C@H](CCC(=O)O)NC(=O)[C@H](CCCCN)NC(=O)[C@@H](NC(=O)[C@H](C)NC(=O)[C@H](CCC(=O)O)NC(=O)CNC(=O)[C@H](CCC(=O)O)NC(=O)[C@H](CC(C)C)NC(=O)[C@H](Cc1ccc(O)cc1)NC(=O)[C@H](CO)NC(=O)[C@H](CO)NC(=O)[C@@H](NC(=O)[C@H](CC(=O)O)NC(=O)[C@H](CO)NC(=O)[C@@H](NC(=O)[C@H](Cc1ccccc1)NC(=O)[C@@H](NC(=O)CNC(=O)[C@H](CCC(=O)O)NC(=O)C(C)(C)NC(=O)[C@@H](N)Cc1c[nH]cn1)[C@@H](C)O)[C@@H](C)O)C(C)C)C(C)C)C(=O)N[C@@H](C)C(=O)N[C@@H](Cc1c[nH]c2ccccc12)C(=O)N[C@@H](CC(C)C)C(=O)N[C@H](C(=O)N[C@@H](CCC(=O)O)C(=O)N[C@@H](CCCCN)C(=O)N[C@@H](Cc1ccccc1)C(=O)N[C@@H](CCCCN)C(=O)N[C@@H](CCC(=O)O)C(=O)N[C@@H](Cc1ccccc1)C(=O)N[C@@H](Cc1ccccc1)C(N)=O)C(C)C` [Compound 93, [Aib8,Glu23,Val25,Glu34,Lys35,Phe36,Lys37]-GLP-1-(7-37)-peptidyl-Glu-Phe-Phe amide] (H-H[Aib]EGTFTSDVSSYLEGEAVKEFIAWLVEKFKEFF-NH2) to `CC[C@H](C)[C@H](NC(=O)[C@H](Cc1ccccc1)NC(=O)[C@H](CCC(=O)O)NC(=O)[C@H](CCCCN)NC(=O)[C@@H](NC(=O)[C@H](CCCCN)NC(=O)[C@H](CCC(=O)O)NC(=O)CNC(=O)[C@H](CCC(=O)O)NC(=O)[C@H](CC(C)C)NC(=O)[C@H](Cc1ccc(O)cc1)NC(=O)[C@H](CO)NC(=O)[C@H](CO)NC(=O)[C@@H](NC(=O)[C@H](CC(=O)O)NC(=O)[C@H](CO)NC(=O)[C@@H](NC(=O)[C@H](Cc1ccccc1)NC(=O)[C@@H](NC(=O)CNC(=O)[C@H](CCC(=O)O)NC(=O)C(C)(C)NC(=O)[C@@H](N)Cc1c[nH]cn1)[C@@H](C)O)[C@@H](C)O)C(C)C)C(C)C)C(=O)N[C@@H](CCC(=O)O)C(=O)N[C@@H](Cc1c[nH]cn1)C(=O)N[C@@H](CC(C)C)C(=O)N[C@H](C(=O)N[C@@H](CCC(=O)O)C(=O)N[C@@H](CCCCN)C(=O)N[C@@H](Cc1ccccc1)C(=O)N[C@@H](CCCCN)C(=O)N[C@@H](CCC(=O)O)C(=O)N[C@@H](Cc1ccccc1)C(=O)N[C@@H](Cc1ccccc1)C(N)=O)C(C)C` [Compound 96, [Aib8,Glu23,Lys24,Val25,Glu30,His31,Glu34,Lys35,Phe36,Lys37]-GLP-1-(7-37)-peptidyl-Glu-Phe-Phe amide] (H-H[Aib]EGTFTSDVSSYLEGEKVKEFIEHLVEKFKEFF-NH2), the “4 h Cholesterol Efflux Emax” value rises from 113% to 123%.

In the case of `CC[C@H](C)[C@H](NC(=O)[C@H](Cc1ccccc1)NC(=O)[C@H](CCC(=O)O)NC(=O)[C@H](CCCCN)NC(=O)[C@@H](NC(=O)[C@H](C)NC(=O)[C@H](CCC(=O)O)NC(=O)CNC(=O)[C@H](CCC(=O)O)NC(=O)[C@H](CC(C)C)NC(=O)[C@H](Cc1ccc(O)cc1)NC(=O)[C@H](CO)NC(=O)[C@H](CO)NC(=O)[C@@H](NC(=O)[C@H](CC(=O)O)NC(=O)[C@H](CO)NC(=O)[C@@H](NC(=O)[C@H](Cc1ccccc1)NC(=O)[C@@H](NC(=O)CNC(=O)[C@H](CCC(=O)O)NC(=O)C(C)(C)NC(=O)[C@@H](N)Cc1c[nH]cn1)[C@@H](C)O)[C@@H](C)O)C(C)C)C(C)C)C(=O)N[C@@H](C)C(=O)N[C@@H](Cc1c[nH]c2ccccc12)C(=O)N[C@@H](CC(C)C)C(=O)N[C@H](C(=O)N[C@@H](CCC(=O)O)C(=O)N[C@@H](CCCCN)C(=O)NC(C)(C)C(=O)N[C@@H](CCCCN)C(=O)N[C@@H](CCC(=O)O)C(=O)N[C@@H](Cc1ccccc1)C(=O)N[C@@H](CC(C)C)C(=O)N[C@@H](CCC(=O)O)C(=O)N[C@@H](CCCCN)C(=O)N[C@H](C(=O)N[C@@H](CCCCN)C(=O)N[C@@H](CCC(=O)O)C(=O)N[C@@H](Cc1ccccc1)C(=O)O)C(C)C)C(C)C` [Compound 97], the “4 h Cholesterol Efflux Emax” value was 125%.

Same assay, conditions: read-out: 4 h Cholesterol Efflux EC50; RAW 264.7, 4 hrs incubation, 0.1% human serum albumin, ABCA1-mediated efflux (CPT-cAMP induced minus non-induced)

Work on `CC[C@H](C)[C@H](NC(=O)[C@H](Cc1ccccc1)NC(=O)[C@H](CCC(=O)O)NC(=O)[C@H](CCCCN)NC(=O)[C@@H](NC(=O)[C@H](C)NC(=O)[C@H](CCC(=O)O)NC(=O)CNC(=O)[C@H](CCC(=O)O)NC(=O)[C@H](CC(C)C)NC(=O)[C@H](Cc1ccc(O)cc1)NC(=O)[C@H](CO)NC(=O)[C@H](CO)NC(=O)[C@@H](NC(=O)[C@H](CC(=O)O)NC(=O)[C@H](CO)NC(=O)[C@@H](NC(=O)[C@H](Cc1ccccc1)NC(=O)[C@@H](NC(=O)CNC(=O)[C@H](CCC(=O)O)NC(=O)C(C)(C)NC(=O)[C@@H](N)Cc1c[nH]cn1)[C@@H](C)O)[C@@H](C)O)C(C)C)C(C)C)C(=O)N[C@@H](C)C(=O)N[C@@H](Cc1c[nH]c2ccccc12)C(=O)N[C@@H](CC(C)C)C(=O)N[C@H](C(=O)N[C@@H](CCC(=O)O)C(=O)N[C@@H](CCCCN)C(=O)NC(C)(C)C(=O)N[C@@H](CCCCN)C(=O)N[C@@H](CCC(=O)O)C(=O)N[C@@H](Cc1ccccc1)C(=O)N[C@@H](CC(C)C)C(=O)N[C@@H](CCC(=O)O)C(=O)N[C@@H](CCCCN)C(=O)N[C@H](C(=O)N[C@@H](CCCCN)C(=O)N[C@@H](CCC(=O)O)C(=O)N[C@@H](Cc1ccccc1)C(=O)O)C(C)C)C(C)C` [Compound 97] yielded a pEC50 of 6.39.
